{"source": "BindingDB's records for doi:10.1021/jm960395q", "about": "(Shionogi, 1996)", "key": {"Phospholipase A2": {"target": "Phospholipase A2 (Homo sapiens, UniProt P04054)", "sequence (P04054 whole entry)": "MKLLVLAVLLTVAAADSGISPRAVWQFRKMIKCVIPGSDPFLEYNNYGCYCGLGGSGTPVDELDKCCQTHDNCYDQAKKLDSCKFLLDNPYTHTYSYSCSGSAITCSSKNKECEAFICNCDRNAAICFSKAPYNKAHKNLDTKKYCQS", "experiment": "Inhibition of recombinant human secretory phospholipase A2 (sPLA2), chromogenic screening assay."}, "[1]": {"experiment": "Inhibitory activity against recombinant human secretory phospholipase A2 (s-PLA2) by phosphatidylcholine/deoxycholate assay (PC/DOC)."}}, "data": [{"smiles": "CCc1c(C(=O)C(N)=O)c2cc(OCCC(=O)O)ccn2c1Cc1ccccc1-c1ccccc1", "values": [{"measurement": "IC50", "setting": "Phospholipase A2", "result": 240, "unit": "nM"}]}, {"smiles": "CCc1c(C(=O)C(N)=O)c2cc(OCCCC(=O)O)ccn2c1Cc1ccccc1-c1ccccc1", "values": [{"measurement": "IC50", "setting": "Phospholipase A2", "result": 140, "unit": "nM"}]}, {"smiles": "CCc1c(C(=O)C(N)=O)c2cc(OCC(=O)O)ccn2c1Cc1ccccc1-c1ccccc1", "values": [{"measurement": "IC50", "setting": "Phospholipase A2", "result": 1400, "unit": "nM"}]}, {"smiles": "CCc1c(CC(N)=O)c2c(OCC(O)CC)cccn2c1Cc1cccc(Cl)c1", "note": "(configuration not stated) [2-[3-(3-Chloro-benzyl)-2-ethyl-8-(2-hydroxy-butoxy)-indolizin-1-yl]-acetamide]", "values": [{"measurement": "IC50", "setting": "Phospholipase A2", "result": 19000, "unit": "nM"}]}, {"smiles": "CCc1c(C(=O)C(N)=O)c2c(OCc3ccccn3)cccn2c1Cc1ccccc1-c1ccccc1", "note": "[2-[3-Biphenyl-2-ylmethyl-2-ethyl-8-(pyridin-2-ylmethoxy)-indolizin-1-yl]-2-oxo-acetamide]", "values": [{"measurement": "IC50", "setting": "Phospholipase A2", "result": 46, "unit": "nM"}]}, {"smiles": "CCc1c(C(=O)C(N)=O)c2c(OCc3ccncc3)cccn2c1Cc1ccccc1-c1ccccc1", "note": "[2-[3-Biphenyl-2-ylmethyl-2-ethyl-8-(pyridin-4-ylmethoxy)-indolizin-1-yl]-2-oxo-acetamide]", "values": [{"measurement": "IC50", "setting": "Phospholipase A2", "result": 83, "unit": "nM"}]}, {"smiles": "CCc1c(C(=O)C(N)=O)c2c(OCCC(=O)O)cccn2c1Cc1ccccc1-c1ccccc1", "note": "[3-(1-Aminooxalyl-3-biphenyl-2-ylmethyl-2-ethyl-indolizin-8-yloxy)-propionic acid]", "values": [{"measurement": "IC50", "setting": "[1]", "result": 130, "unit": "nM"}, {"measurement": "IC50", "setting": "Phospholipase A2", "result": 44, "unit": "nM"}]}, {"smiles": "CCc1c(C(=O)C(N)=O)c2c(OCCCC(=O)O)cccn2c1Cc1ccccc1", "note": "[4-(1-Aminooxalyl-3-benzyl-2-ethyl-indolizin-8-yloxy)-butyric acid]", "values": [{"measurement": "IC50", "setting": "Phospholipase A2", "result": 200, "unit": "nM"}]}, {"smiles": "NC(=O)C(=O)c1c(C2CC2)c(Cc2ccccc2-c2ccccc2)n2cccc(OCCCC(=O)O)c12", "note": "[4-(1-Aminooxalyl-3-biphenyl-2-ylmethyl-2-cyclopropyl-indolizin-8-yloxy)-butyric acid]", "values": [{"measurement": "IC50", "setting": "Phospholipase A2", "result": 4400, "unit": "nM"}]}, {"smiles": "CCc1c(C(=O)C(N)=O)c2c(OCCCC(=O)O)cccn2c1CC1CCCCC1", "note": "[4-(1-Aminooxalyl-3-cyclohexylmethyl-2-ethyl-indolizin-8-yloxy)-butyric acid]", "values": [{"measurement": "IC50", "setting": "Phospholipase A2", "result": 3400, "unit": "nM"}]}, {"smiles": "CCc1c(Cc2ccccc2)c2ccc(OCCCC(=O)O)cn2c1C(=O)C(N)=O", "note": "[4-(3-Aminooxalyl-1-benzyl-2-ethyl-indolizin-6-yloxy)-butyric acid]", "values": [{"measurement": "IC50", "setting": "Phospholipase A2", "result": 1100, "unit": "nM"}]}, {"smiles": "CCc1c(CC(N)=O)c2c(OCCCC(=O)O)cccn2c1Cc1ccccc1-c1ccccc1", "note": "[4-(3-Biphenyl-2-ylmethyl-1-carbamoylmethyl-2-ethyl-indolizin-8-yloxy)-butyric acid]", "values": [{"measurement": "IC50", "setting": "Phospholipase A2", "result": 80, "unit": "nM"}]}, {"smiles": "CCc1c(C(=O)C(N)=O)c2c(OCCCCC(=O)O)cccn2c1Cc1ccccc1-c1ccccc1", "note": "[5-(1-Aminooxalyl-3-biphenyl-2-ylmethyl-2-ethyl-indolizin-8-yloxy)-pentanoic acid]", "values": [{"measurement": "IC50", "setting": "Phospholipase A2", "result": 1300, "unit": "nM"}]}, {"smiles": "COC(=O)COc1cccn2c(Cc3cccc4ccccc34)c(C3CC3)c(C(=O)C(N)=O)c12", "note": "[(1-Aminooxalyl-2-cyclopropyl-3-naphthalen-1-ylmethyl-indolizin-8-yloxy)-acetic acid methyl ester]", "values": [{"measurement": "IC50", "setting": "[1]", "result": 200, "unit": "nM"}, {"measurement": "IC50", "setting": "Phospholipase A2", "result": 23, "unit": "nM"}]}, {"smiles": "CCc1c(C(=O)C(N)=O)c2c(OCC(=O)O)cccn2c1Cc1cccc2ccccc12", "note": "[(1-Aminooxalyl-2-ethyl-3-naphthalen-1-ylmethyl-indolizin-8-yloxy)-acetic acid]", "values": [{"measurement": "IC50", "setting": "[1]", "result": 24, "unit": "nM"}, {"measurement": "IC50", "setting": "Phospholipase A2", "result": 5, "unit": "nM"}]}, {"smiles": "CCCCCc1c(CC)c(C(=O)C(N)=O)c2c(OCC(=O)O)cccn12", "note": "[(1-Aminooxalyl-2-ethyl-3-pentyl-indolizin-8-yloxy)-acetic acid]", "values": [{"measurement": "IC50", "setting": "Phospholipase A2", "result": 62, "unit": "nM"}]}, {"smiles": "CCc1c(C(=O)C(N)=O)c2c(OCC(=O)OC)cccn2c1CCc1ccccc1", "note": "[(1-Aminooxalyl-2-ethyl-3-phenethyl-indolizin-8-yloxy)-acetic acid methyl ester]", "values": [{"measurement": "IC50", "setting": "Phospholipase A2", "result": 51, "unit": "nM"}]}, {"smiles": "CCc1c(C(=O)C(N)=O)c2c(OCC(=O)O)cccn2c1CCc1ccccc1", "note": "[(1-Aminooxalyl-2-ethyl-3-phenethyl-indolizin-8-yloxy)-acetic acid]", "values": [{"measurement": "IC50", "setting": "Phospholipase A2", "result": 51, "unit": "nM"}]}, {"smiles": "CCc1c(C(=O)C(N)=O)c2c(OCC(=O)O)cccn2c1Cc1cccs1", "note": "[(1-Aminooxalyl-2-ethyl-3-thiophen-2-ylmethyl-indolizin-8-yloxy)-acetic acid]", "values": [{"measurement": "IC50", "setting": "[1]", "result": 13, "unit": "nM"}, {"measurement": "IC50", "setting": "Phospholipase A2", "result": 11, "unit": "nM"}]}, {"smiles": "NC(=O)C(=O)c1c(C2CC2)c(Cc2ccccc2)n2cccc(OCC(=O)O)c12", "note": "[(1-Aminooxalyl-3-benzyl-2-cyclopropyl-indolizin-8-yloxy)-acetic acid]", "values": [{"measurement": "IC50", "setting": "[1]", "result": 49, "unit": "nM"}, {"measurement": "IC50", "setting": "Phospholipase A2", "result": 46, "unit": "nM"}]}, {"smiles": "CCc1c(C(=O)C(N)=O)c2c(OCC(=O)O)cccn2c1Cc1ccccc1", "note": "[(1-Aminooxalyl-3-benzyl-2-ethyl-indolizin-8-yloxy)-acetic acid]", "values": [{"measurement": "IC50", "setting": "[1]", "result": 5, "unit": "nM"}, {"measurement": "IC50", "setting": "Phospholipase A2", "result": 8, "unit": "nM"}]}, {"smiles": "Cc1c(C(=O)C(N)=O)c2c(OCC(=O)O)cccn2c1Cc1ccccc1", "note": "[(1-Aminooxalyl-3-benzyl-2-methyl-indolizin-8-yloxy)-acetic acid]", "values": [{"measurement": "IC50", "setting": "[1]", "result": 3, "unit": "nM"}, {"measurement": "IC50", "setting": "Phospholipase A2", "result": 8, "unit": "nM"}]}, {"smiles": "COC(=O)COc1cccn2c(Cc3ccccc3-c3ccccc3)c(C3CCCC3)c(C(=O)C(N)=O)c12", "note": "[(1-Aminooxalyl-3-biphenyl-2-ylmethyl-2-cyclopentyl-indolizin-8-yloxy)-acetic acid methyl ester]", "values": [{"measurement": "IC50", "setting": "Phospholipase A2", "result": 280, "unit": "nM"}]}, {"smiles": "NC(=O)C(=O)c1c(C2CC2)c(Cc2ccccc2-c2ccccc2)n2cccc(OCC(=O)O)c12", "note": "[(1-Aminooxalyl-3-biphenyl-2-ylmethyl-2-cyclopropyl-indolizin-8-yloxy)-acetic acid]", "values": [{"measurement": "IC50", "setting": "[1]", "result": 6, "unit": "nM"}, {"measurement": "IC50", "setting": "Phospholipase A2", "result": 9, "unit": "nM"}]}, {"smiles": "CCc1c(C(=O)C(N)=O)c2c(OCC(=O)OC)cccn2c1Cc1ccccc1-c1ccccc1", "note": "[(1-Aminooxalyl-3-biphenyl-2-ylmethyl-2-ethyl-indolizin-8-yloxy)-acetic acid methyl ester]", "values": [{"measurement": "IC50", "setting": "Phospholipase A2", "result": 17, "unit": "nM"}]}, {"smiles": "COC(=O)COc1cccn2c(Cc3ccccc3-c3ccccc3)c(C(C)C)c(C(=O)C(N)=O)c12", "note": "[(1-Aminooxalyl-3-biphenyl-2-ylmethyl-2-isopropyl-indolizin-8-yloxy)-acetic acid methyl ester]", "values": [{"measurement": "IC50", "setting": "Phospholipase A2", "result": 35, "unit": "nM"}]}, {"smiles": "COc1c(C(=O)C(N)=O)c2c(OCC(=O)O)cccn2c1Cc1ccccc1-c1ccccc1", "note": "[(1-Aminooxalyl-3-biphenyl-2-ylmethyl-2-methoxy-indolizin-8-yloxy)-acetic acid]", "values": [{"measurement": "IC50", "setting": "[1]", "result": 13, "unit": "nM"}, {"measurement": "IC50", "setting": "Phospholipase A2", "result": 15, "unit": "nM"}]}, {"smiles": "CSc1c(C(=O)C(N)=O)c2c(OCC(=O)O)cccn2c1Cc1ccccc1-c1ccccc1", "note": "[(1-Aminooxalyl-3-biphenyl-2-ylmethyl-2-methylsulfanyl-indolizin-8-yloxy)-acetic acid]", "values": [{"measurement": "IC50", "setting": "Phospholipase A2", "result": 16, "unit": "nM"}]}, {"smiles": "COC(=O)COc1cccn2c(Cc3ccccc3-c3ccccc3)c(C(C)(C)C)c(C(=O)C(N)=O)c12", "note": "[(1-Aminooxalyl-3-biphenyl-2-ylmethyl-2-tert-butyl-indolizin-8-yloxy)-acetic acid methyl ester]", "values": [{"measurement": "IC50", "setting": "Phospholipase A2", "result": 100, "unit": "nM"}]}, {"smiles": "Cc1c(C(=O)C(N)=O)c2c(OCC(=O)O)cccn2c1CC12C[C@H]3C[C@@H](C1)C[C@@H](C2)C3", "note": "[(3-Adamantan-1-ylmethyl-1-aminooxalyl-2-methyl-indolizin-8-yloxy)-acetic acid]", "values": [{"measurement": "IC50", "setting": "Phospholipase A2", "result": 120, "unit": "nM"}]}, {"smiles": "CCc1c(C(=O)C(=O)N(C)C)c2c(OCC(=O)O)cccn2c1Cc1ccccc1", "note": "[(3-Benzyl-1-dimethylaminooxalyl-2-ethyl-indolizin-8-yloxy)-acetic acid]", "values": [{"measurement": "IC50", "setting": "Phospholipase A2", "result": "> 50000", "unit": "nM"}]}, {"smiles": "CCc1c(C(=O)C(=O)NC)c2c(OCC(=O)O)cccn2c1Cc1ccccc1", "note": "[(3-Benzyl-2-ethyl-1-methylaminooxalyl-indolizin-8-yloxy)-acetic acid]", "values": [{"measurement": "IC50", "setting": "Phospholipase A2", "result": "> 50000", "unit": "nM"}]}, {"smiles": "CCc1c(C(=O)C(N)=O)c2c(OCC(=O)O)cccn2c1Cc1cc(C(C)(C)C)cc(C(C)(C)C)c1", "note": "[[1-Aminooxalyl-3-(3,5-di-tert-butyl-benzyl)-2-ethyl-indolizin-8-yloxy]-acetic acid]", "values": [{"measurement": "IC50", "setting": "Phospholipase A2", "result": 6600, "unit": "nM"}]}]}
